Reference: patent US8993752B2, “Neprilysin inhibitors” (Theravance Biopharma R&D IP, LLC, priority 2011, dated 2015)

Biological target: T1, human NEP (Homo sapiens, UniProt P08473)
T1 construct: purchased R&D Systems, Minneapolis, Minn; 1182-ZN
Assay: In vitro enzyme inhibition assay at human NEP (fluorogenic peptide substrate)
Format: biochemical
Details: recombinant human NEP; substrate Mca-D-Arg-Arg-Leu-Dap-(Dnp)-OH 10 μM; 37° C.; values given as ranges; read-out: pKi values at human NEP (converted)
Protocol: The inhibitory activities of compounds at human and rat neprilysin (EC 3.4.24.11; NEP) and human angiotensin converting enzyme (ACE) were determined using in vitro assays as described below.
Recombinant human NEP and recombinant human ACE were obtained commercially (R&D Systems, Minneapolis, Minn., catalog numbers 1182-ZN and 929-ZN, respectively). The fluorogenic peptide substrate Mca-D-Arg-Arg-Leu-Dap-(Dnp)-OH (Medeiros et al. (1997) Braz. J. Med. Biol. Res. 30:1157-62; Anaspec, San Jose, Calif.) and Abz-Phe-Arg-Lys(Dnp)-Pro-OH (Araujo et al. (2000) Biochemistry 39:8519-8525; Bachem, Torrance, Calif.) were used in the NEP and ACE assays respectively.
The assays were performed in 384-well white opaque plates at 37° C. using the fluorogenic peptide substrates at a concentration of 10 μM in Assay Buffer (NEP: 50 mM HEPES, pH 7.5, 100 mM NaCl, 0.01% polyethylene glycol sorbitan monolaurate (Tween-20), 10 μM ZnSO4; ACE: 50 mM HEPES, pH 7.5, 100 mM NaCl, 0.01% Tween-20, 1 μM ZnSO4).
Test compounds were assayed over the range of concentrations from 10 μM to 20 pM. Test compounds were added to the enzymes and incubated for 30 minute at 37° C. prior to initiating the reaction by the addition of substrate. Reactions were terminated after 20 minutes of incubation at 37° C. by the addition of glacial acetic acid to a final concentration of 3.6% (v/v).
Plates were read on a fluorometer with excitation and emission wavelengths set to 320 nm and 405 nm, respectively Inhibition constants were obtained by nonlinear regression of the data using the equation (GraphPad Software, Inc., San Diego, Calif.): v=v0/[1+(I/K′)] where v is the reaction rate, v0 is the uninhibited reaction rate, I is the inhibitor concentration and K′ is the apparent inhibition constant.
Compounds of the invention were tested in this assay and found to have pKi values at human NEP as follows.

T1 sequence (P08473 whole entry): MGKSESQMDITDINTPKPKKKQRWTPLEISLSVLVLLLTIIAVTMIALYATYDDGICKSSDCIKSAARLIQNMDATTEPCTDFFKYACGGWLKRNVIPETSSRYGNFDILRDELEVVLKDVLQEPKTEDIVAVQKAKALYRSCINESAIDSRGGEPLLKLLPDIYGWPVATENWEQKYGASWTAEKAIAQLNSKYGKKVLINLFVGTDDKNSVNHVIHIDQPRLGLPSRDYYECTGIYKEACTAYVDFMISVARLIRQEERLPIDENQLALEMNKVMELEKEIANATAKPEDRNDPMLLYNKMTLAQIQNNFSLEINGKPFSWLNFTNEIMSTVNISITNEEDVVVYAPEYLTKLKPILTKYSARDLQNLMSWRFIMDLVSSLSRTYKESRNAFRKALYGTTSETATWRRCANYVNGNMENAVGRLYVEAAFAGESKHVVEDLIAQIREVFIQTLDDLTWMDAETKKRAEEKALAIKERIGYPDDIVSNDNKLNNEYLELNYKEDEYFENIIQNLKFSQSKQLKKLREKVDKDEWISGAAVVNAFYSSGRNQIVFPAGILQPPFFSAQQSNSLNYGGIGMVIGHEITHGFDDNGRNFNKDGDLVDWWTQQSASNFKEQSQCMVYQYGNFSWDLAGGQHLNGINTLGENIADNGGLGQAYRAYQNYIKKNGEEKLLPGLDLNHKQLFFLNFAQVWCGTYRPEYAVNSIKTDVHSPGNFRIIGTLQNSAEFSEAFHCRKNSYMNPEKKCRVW

Structure (SMILES) | Ki
O=C(N[C@H](Cc1ccccc1Cl)[C@@H](O)C(=O)O)c1cc(C(=O)O)n(Cc2ccc(F)cc2)n1 [Example 2-20, 5-[(1R,2R)-2-Carboxy-1-(2-chloro-benzyl)-2-hydroxy-ethylcarbamoyl]-2-(4-fluoro-benzyl)-2H-pyrazole-3-carboxylic acid] | 1.26 to 10 nM
O=C(O)C[C@@H](Cc1ccccc1C(F)(F)F)NC(=O)c1cc(C(=O)O)[nH]n1 [Example 12, 5-[(R)-2-Carboxy-1-(2-trifluoromethylbenzyl)-ethylcarbamoyl]-2H-pyrazole-3-carboxylic Acid] | 12.6 to 100 nM
O=C(O)Cn1nc(C(=O)N[C@H](Cc2ccccc2Cl)[C@@H](O)C(=O)O)cc1-c1ccc(Cl)cc1Cl [Example 2-74, (2R,3R)-3-{[1-Carboxymethyl-5-(2,4-dichlorophenyl)-1H-pyrazole-3-carbonyl]-amino}-4-(2-chloro-phenyl)-2-hydroxy-butyric acid] | 12.6 to 100 nM
O=C(N[C@H](Cc1ccccc1Cl)[C@@H](O)C(=O)O)c1cc(-c2ccc(-c3ccccc3)cc2)[nH]n1 [Example 2-49, (2R,3R)-3-[(5-Biphenyl-4-yl-1H-pyrazole-3-carbonyl)-amino]-4-(2-chloro-phenyl)-2-hydroxy-butyric acid] | 12.6 to 100 nM
COc1ccc(Cn2nc(C(=O)N[C@H](Cc3ccccc3Cl)[C@@H](O)C(=O)O)cc2C(=O)O)cc1F [Example 2-37, 5-[(1R,2R)-2-Carboxy-1-(2-chloro-benzyl)-2-hydroxy-ethylcarbamoyl]-2-(3-fluoro-4-methoxy-benzyl)-2H-pyrazole-3-carboxylic acid] | 1.26 to 10 nM
CCCCc1cc(C(=O)N[C@H](Cc2ccccc2Cl)[C@@H](O)C(=O)O)nn1Cc1c(F)c(F)c(OC)c(F)c1F [Example 2-69, (2R,3R)-3-{[5-Butyl-1-(2,3,5,6-tetrafluoro-4-methoxy-benzyl)-1H-pyrazole-3-carbonyl]-amino}-4-(2-chloro-phenyl)-2-hydroxy-butyric acid] | ≤ 1 nM
O=C(N[C@H](Cc1ccccc1Cl)[C@@H](O)C(=O)O)c1cc(C(=O)O)n(Cc2cc(F)cc(Cl)c2)n1 [Example 2-16, 5-[(1R,2R)-2-Carboxy-1-(2-chloro-benzyl)-2-hydroxy-ethylcarbamoyl]-2-(3-chloro-5-fluoro-benzyl)-2H-pyrazole-3-carboxylic acid] | 1.26 to 10 nM
O=C(N[C@H](Cc1ccccc1Cl)[C@@H](O)C(=O)O)c1cc(-c2ccccc2Cl)n(-c2ccc(Cl)cc2Cl)n1 [Example 2-64, (2R,3R)-4-(2-Chloro-phenyl)-3-{[5-(2-chloro-phenyl)-1-(2,4-dichloro-phenyl)-1H-pyrazole-3-carbonyl]-amino}-2-hydroxy-butyric acid] | 12.6 to 100 nM
O=C(N[C@H](Cc1ccccc1Cl)[C@@H](O)C(=O)O)c1cc(C(=O)O)n(Cc2c(F)cccc2F)n1 [Example 2-44, 5-[(1R,2R)-2-Carboxy-1-(2-chloro-benzyl)-2-hydroxy-ethylcarbamoyl]-2-(2,6-difluoro-benzyl)-2H-pyrazole-3-carboxylic acid] | 1.26 to 10 nM
Cc1ccccc1C[C@H](CC(=O)O)NC(=O)c1cc(C(=O)O)[nH]n1 [Example 13, 5-((R)-1-Carboxymethyl-2-o-tolyl-ethylcarbamoyl)-2H-pyrazole-3-carboxylic Acid] | 12.6 to 100 nM
COc1ccc(Cn2nc(C(=O)N[C@H](Cc3ccccc3Cl)[C@@H](O)C(=O)O)cc2C(=O)O)cc1 [Example 2-21, 5-[(1R,2R)-2-Carboxy-1-(2-chloro-benzyl)-2-hydroxy-ethylcarbamoyl]-2-(4-methoxy-benzyl)-2H-pyrazole-3-carboxylic acid] | ≤ 1 nM
O=C(N[C@H](Cc1ccccc1Cl)[C@@H](O)C(=O)O)c1cc(-c2ccccc2Cl)[nH]n1 [Example 2-48, (2R,3R)-4-(2-Chloro-phenyl)-3-{[5-(2-chloro-phenyl)-1H-pyrazole-3-carbonyl]-amino}-2-hydroxy-butyric acid] | 1.26 to 10 nM

Results, then the compound that gave them:

Ki | Structure (SMILES)
12.6 to 100 nM | O=C(N[C@H](Cc1ccccc1)[C@@H](O)C(=O)O)c1cc(C(=O)O)n(CCO)n1 [Example 8-14, 5-((1R,2R)-1-Benzyl-2-carboxy-2-hydroxy-ethylcarbamoyl)-2-(2-hydroxy-ethyl)-2H-pyrazole-3-carboxylic acid]
1.26 to 10 nM | O=C(N[C@H](Cc1ccccc1)[C@@H](O)C(=O)O)c1cc(C(=O)O)n(Cc2c(F)cc(Cl)cc2F)n1 [Example 8-3, 5-((1R,2R)-1-Benzyl-2-carboxy-2-hydroxy-ethylcarbamoyl)-2-(4-chloro-2,6-difluoro-benzyl)-2H-pyrazole-3-carboxylic acid]
12.6 to 100 nM | COc1ccccc1-c1cc(C(=O)N[C@H](Cc2ccccc2Cl)[C@@H](O)C(=O)O)[nH]n1 [Example 3-4, (2R,3R)-4-(2-Chloro-phenyl)-2-hydroxy-3-{[5-(2-methoxy-phenyl)-2H-pyrazole-3-carbonyl]-amino}-butyric acid]
12.6 to 100 nM | O=C(O)C[C@@H](Cc1ccccc1Cl)NC(=O)c1cc(C(=O)O)[nH]n1 [Example 11-7, 5-[(R)-1-Carboxymethyl-2-(2-chloro-phenyl)-ethylcarbamoyl]-2H-pyrazole-3-carboxylic acid]
12.6 to 100 nM | CNC(=O)c1cc(C(=O)N[C@H](Cc2ccccc2C(F)(F)F)[C@@H](O)C(=O)O)n[nH]1 [Example 6-5, (2R,3R)-2-Hydroxy-3-[(5-methylcarbamoyl-1H-pyrazole-3-carbonyl)-amino]-4-(2-trifluoromethyl-phenyl)-butyric acid]
1.26 to 10 nM | O=C(N[C@H](Cc1ccccc1C(F)(F)F)[C@@H](O)C(=O)O)c1cc(C(=O)N2CC[C@@H](O)C2)[nH]n1 [Example 6-10, (2R,3R)-2-Hydroxy-3-{[5-((R)-3-hydroxy-pyrrolidine-1-carbonyl)-1H-pyrazole-3-carbonyl]-amino}-4-(2-trifluoromethyl-phenyl)-butyric acid]
1.26 to 10 nM | O=C(N[C@H](Cc1ccccc1)[C@@H](O)C(=O)O)c1cc(C(=O)O)n(Cc2ccc(Cl)cc2F)n1 [Example 8-1, 5-((1R,2R)-1-Benzyl-2-carboxy-2-hydroxy-ethylcarbamoyl)-2-(4-chloro-2-fluoro-benzyl)-2H-pyrazole-3-carboxylic acid]
12.6 to 100 nM | CCCc1cc(C(=O)N[C@H](Cc2ccccc2)[C@@H](O)C(=O)O)nn1Cc1ccccc1 [Example 8-19, (2R,3R)-3-[(1-Benzyl-5-propyl-1H-pyrazole-3-carbonyl)-amino]-2-hydroxy-4-phenyl-butyric acid]
12.6 to 100 nM | COc1ccc(Cn2nc(C(=O)N[C@@H](CC(=O)O)Cc3ccccc3Cl)cc2C(=O)O)cc1 [Example 11-2, 5-[(R)-2-Carboxy-1-(2-chloro-benzyl)-ethylcarbamoyl]-2-(4-methoxy-benzyl)-2H-pyrazole-3-carboxylic acid]
12.6 to 100 nM | O=C(N[C@H](Cc1ccccc1)[C@@H](O)C(=O)O)c1cc(C(=O)O)[nH]n1 [Example 8-10, 5-((1R,2R)-1-Benzyl-2-carboxy-2-hydroxy-ethylcarbamoyl)-2H-pyrazole-3-carboxylic acid]
12.6 to 100 nM | CC(C)CN(C)C(=O)c1cc(C(=O)N[C@H](Cc2ccccc2C(F)(F)F)[C@@H](O)C(=O)O)n[nH]1 [Example 6-3, (2R,3R)-2-Hydroxy-3-{[5-(isobutyl-methyl-carbamoyl)-1H-pyrazole-3-carbonyl]-amino}-4-(2-trifluoromethyl-phenyl)-butyric acid]
